Source: PMC3288109, “γ-Aminobutyric Acid Transporter 2 Mediates the Hepatic Uptake of Guanidinoacetate, the Creatine Biosynthetic Precursor, in Rats” (PLoS ONE, 2012)

Columns and labels:
[1] = target: T1, GAT2 (γ-aminobutyric acid transporter 2, SLC6A13) (Rattus norvegicus, UniProt P31646); test: cell-based; set-up: rat GAT2 open reading frame cRNA expressed in Xenopus laevis oocytes; species or system Xenopus laevis oocytes; Inhibition of [14C]GAA (45 uM) uptake by rat GAT2 cRNA-injected oocytes, 20 C, scintillation counting; conditions: Oocyte; [14C]GAA 45 uM, 1 h, 20 C; read-out: % of control / 100±7
T1 sequence (P31646 1-602): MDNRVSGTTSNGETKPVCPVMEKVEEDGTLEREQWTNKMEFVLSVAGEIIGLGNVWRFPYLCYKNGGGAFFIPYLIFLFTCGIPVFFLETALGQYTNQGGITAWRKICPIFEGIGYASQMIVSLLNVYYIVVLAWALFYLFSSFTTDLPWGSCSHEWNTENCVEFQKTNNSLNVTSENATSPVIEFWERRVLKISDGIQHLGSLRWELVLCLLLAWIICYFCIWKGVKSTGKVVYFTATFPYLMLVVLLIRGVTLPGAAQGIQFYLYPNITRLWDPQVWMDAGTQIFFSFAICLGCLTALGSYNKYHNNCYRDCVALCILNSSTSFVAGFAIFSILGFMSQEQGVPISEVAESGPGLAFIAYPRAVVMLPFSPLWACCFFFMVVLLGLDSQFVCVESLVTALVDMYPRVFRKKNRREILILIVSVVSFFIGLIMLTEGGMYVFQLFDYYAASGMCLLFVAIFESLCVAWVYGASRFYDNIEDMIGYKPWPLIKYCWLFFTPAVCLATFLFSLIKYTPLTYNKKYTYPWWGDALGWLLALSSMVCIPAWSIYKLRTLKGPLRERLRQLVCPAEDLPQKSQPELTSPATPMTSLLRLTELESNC
Description: Using T7 RNA polymerase, capped cRNA was transcribed from NotI-linearized pGEM-HEN containing an open reading frame of rat GAT2 cDNA. Defolliculated oocytes were injected with 23 nL water or the capped cRNA (30–50 ng) and incubated at 18°C in freshly prepared standard oocyte saline solution containing 100 mM NaCl, 2 mM KCl, 1.8 mM CaCl2, 1 mM MgCl2, and 5 mM HEPES, 25 µg/mL gentamycin, 2.5 mM pyruvate and 1% bovine serum albumin, pH 7.5. The standard oocyte saline solution used to incubate the oocytes was replaced with fresh solution daily. Experiments were performed after incubation for 4 to 6 days. For the uptake study by Xenopus laevis oocytes, oocytes were preincubated with 500 µL ND96 solution containing (in mM) 96 NaCl, 2 KCl, 1.8 CaCl2, 1 MgCl2, and 5 HEPES for 20 min at 20°C before the uptake experiment. The uptake experiment was initiated by replacing the ND96 solution with 200 µL of the same solution containing [^14C]GAA (45 µM) […] [^14C]creatine (45 µM). After incubation for a designated time at 20°C, the uptake was terminated by addition of ice-cold ND96 solution. […] The inhibitory effects of GAT substrates and inhibitors on the [^14C]GAA uptake were further examined (Figure 3B and Table 3).

[2] = tested on: T2, freshly isolated rat hepatocytes; test: cells; set-up: species or system primary rat hepatocytes; Inhibition of [14C]GAA (18 uM) uptake by freshly isolated rat hepatocytes, 37 C, scintillation counting; conditions: Hepatocyte, 0.05 h, [14C]GAA 18 uM, 3 min, 37 C, read-out: % of control remaining
T2 construct: Wistar primary hepatocytes, collagenase perfusion
From the text: Rat hepatocytes were isolated by collagenase perfusion and Percoll isodensity centrifugation as described previously. The hepatocytes were resuspended in Tyrode buffer containing (in mM) 137 NaCl, 2.7 KCl, 1.05 MgCl2, 1.8 CaCl2, 12 NaHCO3, 0.4 NaH2PO4, and 5.6 D-glucose. Uptake of [^14C]GAA or [^14C]creatine by the freshly isolated hepatocytes was examined according to the methods described previously. In brief, after centrifugation and aspiration of the buffer, uptake was initiated by applying 100 µL Tyrode buffer containing [^14C]GAA or [^14C]creatine at 37°C in the presence or absence of inhibitors. Na^+-free Tyrode buffer was prepared by replacement of NaCl, NaH2PO4 and NaHCO3 with equimolar N-methyl-D-glucamine, KH2PO4, and KHCO3, respectively. Cl^−-free uptake buffer was prepared by replacement with equimolar gluconate. After a predetermined period, uptake was terminated by centrifugation of the solution. The cells were then solubilized in 1 N NaOH and subsequently neutralized with 1 N HCl. The cell-associated radioactivity and protein content were assayed by [compound left out] scintillation spectrometry and detergent compatible protein assay (a DC protein assay kit, Bio-Rad, Hercules, CA) with bovine serum albumin as a standard. […] In contrast, there was no time-dependent increase in [^14C]creatine uptake by hepatocytes (Figure 2A). […] The [^14C]GAA uptake took place in a concentration-dependent manner and consisted of a single saturable component (Figure 2B). […] In contrast, creatinine, betaine, guanidinosuccinic acid, L-arginine, L-alanine, and L-serine had much weaker effects. GABA, taurine, and creatine inhibited the [^14C]GAA uptake in a concentration-dependent manner with an IC50 value of 8.81±1.33 µM, 1.13±0.30 mM, and 1.42±0.53 mM, respectively (Figure 2C–E). […] Among the GAT subtypes, GAT2 is predominantly expressed in rat liver. […] [^14C]GAA uptake was reduced by 46.4% in GAT2-silenced hepatocytes corresponding to the reduction in GAT2 protein (Figure 2F).

[3] = target: T1, GAT2 (γ-aminobutyric acid transporter 2, SLC6A13); assay type: cell-based; conditions: xenopus oocytes
[4] = substrate: N=C(N)NCC(=O)O; test: cells, lysate or membranes; assay type: cell-based, Rattus norvegicus; conditions: Na+ and Cl-

Molecule | remaining activity at 5000 µM [1] | activity at 2000 µM [2] | [14C]creatine uptake by GAT2-expressing oocytes; also 57.3% of control [14C]GAA [3] | Km [4]
O=C(O)C1CCCNC1 (stereo not drawn) [Nipecotic acid] | 11.9 ± 1.5% | 30.8 ± 1.2% |  | 
CN1CC(=O)NC1=N [Creatinine] | 147 ± 18% | 75.3 ± 8.9% |  | 
NCCC(=O)O [β-Alanine] |  | 28.5 ± 5.5% |  | 
[H]/N=C(/N)NCC(=O)O [Guanidinoacetic acid] |  | 24.1 ± 1.1% |  | 
NCCCC(=O)O [GABA] | 1.74 ± 0.44% | 17.1 ± 1.6% |  | 
[H]/N=C(\N)NCCC(=O)O [β-Guanidinopropionic acid] | 0.81 ± 0.07% | 18.9 ± 0.9% |  | 
NC(N)=N[C@@H](CC(=O)O)C(=O)O [Guanidinosuccinic acid] | 148 ± 11% | 71.2 ± 5.1% |  | 
N[C@@H](CO)C(=O)O [L-Serine] |  | 83.8 ± 6.4% |  | 
NCCS(=O)(=O)O [Taurine] | 16.6 ± 4.4% |  |  | 
CN(CC(=O)O)C(=N)N [Creatine] | 57.3 ± 8.3% |  | 28 fold over water-injected oocytes | 
N=C(N)NCCCC(=O)O [γ-Guanidinobutyric acid] | 2.35 ± 0.23% |  |  | 
N=C(N)NCCC[C@H](N)C(=O)O [L-Arginine] | 137 ± 15% | 74.9 ± 11.1% |  | 
N=C(N)NCCS(=O)(=O)O [Guanidinoethansulfonic acid] | 11 ± 1.2% | 33 ± 4.4% |  | 
C[C@H](N)C(=O)O [L-Alanine] | 138 ± 18% | 59.6 ± 7.8% |  | 
C[N+](C)(C)CC(=O)O [Betaine] | 96.7 ± 7.4% | 64.4 ± 8.7% |  | 
NCC(=O)O [Glycine] |  | 54.4 ± 11.2% |  | 
GAT2 (γ-aminobutyric acid transporter 2, SLC6A13) (Rattus norvegicus) (protein, rat GAT2 open reading frame cRNA expressed in Xenopus laevis oocytes) MDNRVSGTTSNGETKPVCPVMEKVEEDGTLEREQWTNKMEFVLSVAGEIIGLGNVWRFPYLCYKNGGGAFFIPYLIFLFTCGIPVFFLETALGQYTNQGGITAWRKICPIFEGIGYASQMIVSLLNVYYIVVLAWALFYLFSSFTTDLPWGSCSHEWNTENCVEFQKTNNSLNVTSENATSPVIEFWERRVLKISDGIQHLGSLRWELVLCLLLAWIICYFCIWKGVKSTGKVVYFTATFPYLMLVVLLIRGVTLPGAAQGIQFYLYPNITRLWDPQVWMDAGTQIFFSFAICLGCLTALGSYNKYHNNCYRDCVALCILNSSTSFVAGFAIFSILGFMSQEQGVPISEVAESGPGLAFIAYPRAVVMLPFSPLWACCFFFMVVLLGLDSQFVCVESLVTALVDMYPRVFRKKNRREILILIVSVVSFFIGLIMLTEGGMYVFQLFDYYAASGMCLLFVAIFESLCVAWVYGASRFYDNIEDMIGYKPWPLIKYCWLFFTPAVCLATFLFSLIKYTPLTYNKKYTYPWWGDALGWLLALSSMVCIPAWSIYKLRTLKGPLRERLRQLVCPAEDLPQKSQPELTSPATPMTSLLRLTELESNC |  |  |  | 78.9 µM
